Experimental data from patent US12629348B2, “Method and composition for treating osteoarthritis” (Vireo Systems, Inc., priority 2013, dated 2026).

Test system: cultured canine chondrocytes
Test: TNFα release in cultured canine chondrocytes challenged with IL1b
Type: cell-based
Details: IL1b challenge; FIG. 4
Method: The study involved the use of cultured canine chondrocytes (i.e., cells within the joint that are activated during OA). The canine chondrocytes were subjected to an inflammatory challenge in the form of cytokine Interleukin 1 beta (“IL1b”). The canine chondrocytes were then treated with various anti-inflammatory compounds including Alpha-GEE; glucosamine; a TNFα receptor antagonist; and a NSAID (Rimadyl). Alpha-GEE was administered in concentrations ranging from 10 μM to 1000 μM. The resulting effects of the various treatments on both PGE2 release and TNFα release were examined.
A similar time dependent decrease in TNFα release was also observed in chondrocytes treated with Alpha-GEE, as shown in FIG. 4.

SMILES	effect on TNFα release in canine chondrocytes
CC(C(=O)O)c1ccc2c(c1)[nH]c1ccc(Cl)cc12 (centres unmarked) [Rimadyl]	significant increase
N[C@H]1C(O)O[C@H](CO)[C@@H](O)[C@@H]1O (some centres unmarked) [glucosamine]	no significant effect
